Data on eleven compounds can be found in article PMC8307404, “Crystal Structure-Guided Design of Bisubstrate Inhibitors and Photoluminescent Probes for Protein Kinases of the PIM Family” (Molecules, 2021).

By Kd is commonly meant the free concentration of one partner at which half of the binding sites on the other are occupied at equilibrium, for simple one-to-one binding.

In one data set the target is endoprotease furin. Details: method as in PMID 26110264. As to conditions: cited from earlier work.
Data set [1] has as its target T1, PIM1 (Homo sapiens, UniProt P11309). Description: Thermal shift assay. Format: binding. Also noted: made in house. As to conditions: 2 μM kinase, 12.5 μM compound; mean ± SEM, N = 2.
Description: (§1) Thermal shift assay measurements were performed following the previously published protocol [61] using a real-time PCR instrument (Mx3005p RT-PCR, Stratagene; La Jolla, California). […] The measurements were carried out in PCR low-profile microplate wells (ABgene; Portsmouth, NH, USA). The temperature scan was run from 25 to 95 °C at 1 °C/min. GraphPad Prism v. 6.0 (GraphPad Software, Inc.; San Diego, CA, USA) and Microsoft Excel v. 2007 (Microsoft Office; Redmond, WA, USA) were used for data processing and analysis.
For data set [2], the target named is T2, PIM3 (Homo sapiens, UniProt Q86V86). Description: Thermal shift assay. Conditions: 2 μM kinase, 12.5 μM compound; mean ± SEM, N = 2. Also noted: made in house. Format: binding.
Description: as §1
Data set [3] deals with T3, PIM2 (Homo sapiens, UniProt Q9P1W9). Description: Thermal shift assay. Format: binding. Also noted: made in house. As to conditions: 2 μM kinase, 12.5 μM compound; mean ± SEM, N = 2.
Description: as §1
For data set [4], the target named is T1, PIM1. Description: Binding/displacement assay with FA or TGLI readout. Details: made in house.
Description: (§2) The affinities of the compounds toward the PIM family PKs were determined in a binding/displacement assay with measurement of fluorescence anisotropy (FA) and time-gated luminescence intensity (TGLI) (Table 2). For the initial assessment of the selectivity of compounds, PKAcα was used as the reference basophilic kinase [10].
(§3) Optical FA measurement modules for 5-TAMRA-labeled compounds (ex. 540(20) nm, em. 590(20) nm and 590(20) nm), for Cy5-labeled compounds (ex. 590(50) nm, em. 675(50) nm and 675(50) nm), and optical TGLI measurement modules for ARC-1451 (ex. 330(60) nm, em. 590(50) nm), for ARC-1188 (ex. 330(60) nm, em. 675(50) nm) were used for assays with PHERAstar microplate reader (BMG Labtech; Ortenberg, Germany). TGLI measurements were performed with a delay time of 50 μs and integration of the signal for 150 μs. In each measurement, emission from 200 flashes of excitation radiation was collected. The measurement solutions (20 µL volumes) were prepared in black 384-well low-binding surface microtiter plates (Corning #4514; Kennebunk, ME, USA) and incubated for 20 min at 30 °C before the measurements. The assay buffer contained HEPES hemisodium salt (pH 7.4, 50 mM), NaCl (150 mM), dithiothreitol (5 mM), bovine serum albumin (0.5 mg/mL), and Tween-20 (0.005%). […] 5.04 (GraphPad Software, Inc.) was used for data analysis with FA [32] or TGLI [33] readouts.
The target of the next data set is T4, PKAcα (Homo sapiens, UniProt P17612).
T4 construct: purchased Biaffin GmbH & Co KG (Kassel, Germany)
Description: Binding/displacement assay with FA or TGLI readout. As to conditions: TGLI or FA readout; mean ± SEM, N = 2; read-out: KD, nM (PKAcα). How it is done:
The affinities of the compounds toward the PIM family PKs were determined in a binding/displacement assay with measurement of fluorescence anisotropy (FA) and time-gated luminescence intensity (TGLI) (Table 2). For the initial assessment of the selectivity of compounds, PKAcα was used as the reference basophilic kinase.
Optical FA measurement modules for 5-TAMRA-labeled compounds (ex. 540(20) nm, em. 590(20) nm and 590(20) nm), for Cy5-labeled compounds (ex. 590(50) nm, em. 675(50) nm and 675(50) nm), and optical TGLI measurement modules for ARC-1451 (ex. 330(60) nm, em. 590(50) nm), for ARC-1188 (ex. 330(60) nm, em. 675(50) nm) were used for assays with PHERAstar microplate reader (BMG Labtech; Ortenberg, Germany). TGLI measurements were performed with a delay time of 50 μs and integration of the signal for 150 μs. In each measurement, emission from 200 flashes of excitation radiation was collected. The measurement solutions (20 µL volumes) were prepared in black 384-well low-binding surface microtiter plates (Corning #4514; Kennebunk, ME, USA) and incubated for 20 min at 30 °C before the measurements. The assay buffer contained HEPES hemisodium salt (pH 7.4, 50 mM), NaCl (150 mM), dithiothreitol (5 mM), bovine serum albumin (0.5 mg/mL), and Tween-20 (0.005%). GraphPad Prism v. 5.04 (GraphPad Software, Inc.) was used for data analysis with FA [32] or TGLI [33] readouts. Representative titration curves can be found in Supplementary Figure S7.

Data set [5] deals with T3, PIM2. Description: Binding/displacement assay with FA or TGLI readout. Details: made in house. Conditions: mean ± SEM, N = 2.
Description: as §2, §3
The target in data set [6] is T2, PIM3. Description: Binding/displacement assay with FA or TGLI readout. Also noted: made in house. As to conditions: mean ± SEM, N = 2.
Description: as §2, §3
The next data set has as its target T5, PIM-1-TagRFP (Homo sapiens, UniProt P11309).
T5 construct: expressed in transfected cells; host or cells: U2OS (human osteosarcoma), transient, 48 h, FuGENE HD
Description: Co-localization study, TIRF microscopy. Format: cell-based. Conditions: live U2OS cells, 48 h transfection, 1 h incubation with 2.5 or 5 μM probe.

A further data set concerns U2OS cells. Description: Cellular uptake of fluorescent probes, live-cell microscopy. Format: cell-based, human. As to conditions: 1–5 μM, 10–60 min. On the procedure: For studies of the general internalization properties of ARCs, the cells were seeded at the density of 12,000–25,000 cells per well onto an Ibidi μ-plate (96-well; Ibidi GmbH, Planegg, Germany). After 24 h incubation in growth medium, the cells were treated for 10 min, 30 min, or 1 h with dilutions of compounds 6, 7, 8, or ARC-2090 (5 μM, 2.5 μM, or 1 μM final concentration) in the phenol red-free DMEM/Ham’s F12 medium supplemented with 2% ccFBS and 2 mM glutamine. Next, cells were washed twice with PBS, and imaging medium (MEMO + Supplement A 1:100) was applied subsequently. Cells were imaged with Cytation 5 wide-field microscope (BioTek; Winooski, VT, USA) using 20× air objective and the following settings: for Cy5, 623 nm LED (intensity: 2) and Cy5 filter cube (685 nm) with 104 ms integration time and detector gain value of 2; for TAMRA, 523 nm LED (intensity: 7) and RFP filter cube (593 nm) with 252 ms integration time and detector gain value of 16; for bright-field, white LED with intensity 6, 186 ms integration time and detector gain value of 15. Four independent experiments were performed.

[7] abbreviates: KD, nM (PIM-1), TGLI or FA readout, mean ± SEM, N = 2.

“And” between values parts separate entries of the source, which are not always exact repeats. Equal values may be shown once. Square brackets hold non-standard residues; d marks the D form. Peptide text beside a SMILES is read from it. * marks the point of attachment. X7 = Nc1nccc(-c2ccc(C(=O)*)s2)n1; Ahx = NCCCCCC(=O)O Some results are limits rather than exact numbers.

T1 sequence (P11309 whole entry): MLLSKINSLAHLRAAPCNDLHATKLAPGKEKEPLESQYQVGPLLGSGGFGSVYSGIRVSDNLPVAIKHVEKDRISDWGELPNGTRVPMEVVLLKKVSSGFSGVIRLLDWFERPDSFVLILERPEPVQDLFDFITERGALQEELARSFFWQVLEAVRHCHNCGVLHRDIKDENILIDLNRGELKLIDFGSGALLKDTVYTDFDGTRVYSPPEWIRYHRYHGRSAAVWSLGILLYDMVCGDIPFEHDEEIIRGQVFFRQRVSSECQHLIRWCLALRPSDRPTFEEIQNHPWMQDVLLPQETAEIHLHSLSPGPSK
T3 sequence (Q9P1W9 whole entry): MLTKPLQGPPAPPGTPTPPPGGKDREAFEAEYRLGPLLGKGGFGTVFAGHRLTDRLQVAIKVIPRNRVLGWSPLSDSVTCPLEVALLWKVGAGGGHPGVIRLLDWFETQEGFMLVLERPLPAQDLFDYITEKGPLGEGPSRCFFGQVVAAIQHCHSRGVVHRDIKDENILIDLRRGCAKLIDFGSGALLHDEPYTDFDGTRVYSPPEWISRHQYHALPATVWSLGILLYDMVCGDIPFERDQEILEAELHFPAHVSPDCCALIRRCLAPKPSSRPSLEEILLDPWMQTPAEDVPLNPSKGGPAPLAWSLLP
T5 sequence (P11309 whole entry): as the sequence (P11309 whole entry) above

Consider (D-Arg)6-NH2, for which the Kd at endoprotease furin was 106 nM.

In the case of (D-Arg)9-NH2, the equilibrium dissociation constant (Kd) at endoprotease furin is 1.3 nM.

For `C[C@@H](NC(=O)CCCCCNC(=O)c1ccc(-c2ccnc(N)n2)s1)C(=O)N[C@H](CCCNC(=N)N)C(=O)N[C@H](CCCNC(=N)N)C(=O)N[C@H](CCCNC(=N)N)C(=O)N[C@H](CCCNC(=N)N)C(=O)N[C@H](CCCNC(=N)N)C(=O)N[C@H](CCCNC(=N)N)C(=O)N[C@H](CCCCN)C(=O)NCC(=O)O` [ARC-1141, AMTH-Ahx-D-Ala-(D-Arg)6-D-Lys-Gly] ({X7-Ahx}-[dA][dR][dR][dR][dR][dR][dR][dK]G-OH), the “∆Tm, °C PIM-1” value with PIM1 [1] amounted to 5.2 ± 0.4 °C. Besides, the “∆Tm, °C PIM-3” value with PIM3 [2] is 4.9 ± 0.4 °C. In addition, the “∆Tm, °C PIM-2” value in the data set with PIM2 [3] was determined as 5.9 ± 0.6 °C.

For `N=C(N)NCCC[C@@H](NC(=O)CNC(=O)[C@@H](CCCNC(=N)N)NC(=O)[C@@H](CCCNC(=N)N)NC(=O)CCCCCCCNC(=O)[C@@H]1C[C@@H](O)CN1Cc1nc2c(sc3ccc(Br)cc32)c(=O)[nH]1)C(=O)N[C@H](CCCCN)C(N)=O` [Compound 5, BBTP-Hyp-Aoc-(D-Arg)2-Gly-D-Arg-D-Lys-NH2], the Kd was 37.8 ± 9 nM on PIM1 [4] (setting [7]), > 20600 nM on PKAcα, 447 ± 52 nM at PIM2 [5] and 30.4 ± 6.5 nM on PIM3 [6]. Moreover, on PIM1 [4] (PIM-1 vs PKAcα), the “fold lower selectivity toward PIM-1 than compound 2” value is on record as “over 4 fold”.

On to “BBTP-Hyp-Ahx-(D-Arg)9-D-Lys-NH2 [ARC-3119]”, for which the “∆Tm, °C PIM-1” value with PIM1 [1] was found to be 13.7 ± 0.4 °C. Further, the “∆Tm, °C PIM-3” value with PIM3 [2] amounted to 11.9 ± 0.2 °C. In the data set with PIM2 [3], the “∆Tm, °C PIM-2” value amounted to 13.9 ± 0.6 °C.

As to `CN1C(=CC=CC=CC2=[N+](CCCCCC(=O)NCCCC[C@@H](NC(=O)[C@@H](CCCNC(=N)N)NC(=O)CNC(=O)[C@@H](CCCNC(=N)N)NC(=O)[C@@H](CCCNC(=N)N)NC(=O)CCCCCCCNCc3nc4c(sc5ccc(Br)cc54)c(=O)[nH]3)C(N)=O)c3ccccc3C2(C)C)C(C)(C)c2ccccc21` [Compound 6, BBTP-Aoc-(D-Arg)2-Gly-D-Arg-[D-Lys(Cy5)]-NH2], the dissociation constant Kd was 1.7 ± 0.4 nM at PIM1 [4] (setting [7]), > 303 nM on PKAcα, 5.2 ± 0.9 nM on PIM2 [5] and 2.6 ± 0.3 nM on PIM3 [6]. In addition, the “Manders' coefficient, co-localization with PIM-1-TagRFP” value on PIM-1-TagRFP was found to be 0.72 ± 0.06. The “ability to cross the plasma membrane / internalization” value with U2OS cells is on record as “efficiently internalized into the cells”.

As to `N[C@@H]1CCCN(c2c(/C=C3\SC(=O)NC3=O)cccc2-c2ccccc2)C1` [AZD1208, reference compound], on PKAcα, the Kd was > 83000 nM.

Consider `N=C(N)NCCC[C@@H](NC(=O)CNC(=O)[C@@H](CCCNC(=N)N)NC(=O)[C@@H](CCCNC(=N)N)NC(=O)CCCCc1cn(Cc2nc3c(sc4ccc(Br)cc43)c(=O)[nH]2)nn1)C(=O)N[C@H](CCCCN)C(N)=O` [Compound 4, BBTP-Tap-(D-Arg)2-Gly-D-Arg-D-Lys-NH2], for which the Kd at PIM1 [4] (setting [7]) is 1.8 ± 0.3 nM; on PKAcα it was > 18200 nM; at PIM2 [5], 20 ± 4 nM; on PIM3 [6] it was 6.6 ± 1.4 nM. Further, the “fold higher selectivity as compared to compound 3” value on PIM1 [4] (PIM-1 vs PKAcα) is given as “over 5 fold”.

Take `CN1CCC(CNc2ccc3ncc(-c4cccc(OC(F)(F)F)c4)n3n2)CC1` [SGI-1776, reference compound]: the “∆Tm, °C PIM-1” value at PIM1 [1] is 9.5 °C and 9.5 ± 0.4 °C. Besides, the “∆Tm, °C PIM-3” value on PIM3 [2] was 8.2 ± 0.3 °C. Further, the “∆Tm, °C PIM-2” value at PIM2 [3] came out at 8.1 ± 0.6 °C.

As for `N=C(N)NCCC[C@@H](N)C(=O)N[C@H](CCCNC(=N)N)C(=O)NCC(=O)N[C@H](CCCNC(=N)N)C(=O)N[C@H](CCCCN)C(N)=O` [PIM peptide, (D-Arg)2-Gly-D-Arg-D-Lys-NH2], the dissociation constant Kd at PIM1 [4] (KD toward PIM-1, as worded in text) was > 10000 nM; on PIM1 [4] (setting [7]) it was > 11500 nM; on PKAcα, > 89000 nM; at PIM2 [5], > 46000 nM; on PIM3 [6] it was > 16400 nM.

`CN1C(=CC=CC=CC2=[N+](CCCCCC(=O)NCCCC[C@@H](NC(=O)[C@@H](CCCNC(=N)N)NC(=O)CNC(=O)[C@@H](CCCNC(=N)N)NC(=O)[C@@H](CCCNC(=N)N)NC(=O)CCCCc3cn(Cc4nc5c(sc6ccc(Br)cc65)c(=O)[nH]4)nn3)C(N)=O)c3ccccc3C2(C)C)C(C)(C)c2ccccc21` [Compound 7, BBTP-Tap-(D-Arg)2-Gly-D-Arg-[D-Lys(Cy5)]-NH2]: the Kd at PIM1 [4] (setting [7]) is 21.9 ± 4 nM; at PKAcα, > 1080 nM; at PIM2 [5], 28.2 ± 6.7 nM; on PIM3 [6], 8.3 ± 1 nM. Moreover, the “Manders' coefficient, co-localization with PIM-1-TagRFP” value at PIM-1-TagRFP came to 0.43 ± 0.16. Also, in the data set on U2OS cells, the “ability to cross the plasma membrane / internalization” value is reported as “efficiently internalized into the cells”.
